Data as given in US8034377B2, “DHA esters and use thereof in treatment and prevention of cardiovascular disease” (Pierre Fabre Medicament, priority 2006, dated 2011).
Where two headings read alike, the source gives them in different places.

Target: T1, human Kv 1.5 channel (hKv 1.5) (Homo sapiens, UniProt P22460)
T1 construct: expressed in transfected cells
Test: Ultrarapid potassium current (IKur), whole-cell patch-clamp in HEK 293-hKv 1.5 cells
Format: cell-based
From the text: The cardiac action potential is the basic electrical unit of excitable cardiac cells and represents the activity of several types of ion channels responsible for the various phases of the action potential. Different types of action potentials correspond to different cardiac regions, thus allowing sequential and coordinated activity in these regions. For this reason, Kv 1.5 potassium channels, coded by the KCNA5 gene, are expressed only in auricle tissue and are responsible for the ultrarapid potassium current (IKur) which acts in the repolarization of the auricular action potential. This highly localized expression of Kv 1.5 is in fact a target of choice in the treatment of auricular fibrillation, a pathology in which changes in auricular action potentials are observed.
Thus, the effects of DHA and EPA on IKur were studied. For this purpose, the human isoform of the Kv 1.5 channel (hKv 1.5) was transfected in a stable manner in HEK 293 (human embryonic kidney) cells and the current resulting from the activity of these channels was studied using a whole-cell patch-clamp technique.
HEK 293-hKv 1.5 cells are grown under standard conditions (37° C., incubator at […] and 5% CO2) in Falcon dishes up to 80% confluence. They are then removed and cultured in 35 mm petri dishes containing the following culture medium: DMEM (Invitrogen); 10% fetal bovine serum (Invitrogen); a mixture of 100 U/ml penicillin, 100 μg/ml streptomycin and 0.25 mg/ml glutamine (Invitrogen); and 1.25 mg/ml of Geneticin® as a selective antibiotic.
IKur is studied using the whole-cell patch-clamp technique at ambient temperature (19-22° C.). The pipette medium contains: 125 mM K-aspartate, 20 mM KCl, 10 mM EGTA, 5 mM HEPES, 5 mM Mg-ATP, 1 mM MgCl2, pH 7.3 (KOH). The extracellular medium contains: 140 mM NaCl, 20 mM HEPES, 5 mM D(+)-glucose, 5 mM KCl, 2 mM CaCl2, 1 mM MgCl2, pH 7.4 (NaOH).
IKur is induced every 15 seconds by 300 ms, +60 mV depolarizing pulses from a −80 mV holding potential, followed by −50 mV repolarization. The amplitude of the current peak is established from the maximum current obtained during the first 100 ms of the depolarizing pulse. The amplitude of the current at the end of the pulse is determined during the last 20 ms of the depolarizing pulse.
DHA and EPA are supplied by Sigma. Stock solutions (10 mM) are prepared in ethanol and the final concentration of solvent is 0.25%.

T1 sequence (P22460 whole entry): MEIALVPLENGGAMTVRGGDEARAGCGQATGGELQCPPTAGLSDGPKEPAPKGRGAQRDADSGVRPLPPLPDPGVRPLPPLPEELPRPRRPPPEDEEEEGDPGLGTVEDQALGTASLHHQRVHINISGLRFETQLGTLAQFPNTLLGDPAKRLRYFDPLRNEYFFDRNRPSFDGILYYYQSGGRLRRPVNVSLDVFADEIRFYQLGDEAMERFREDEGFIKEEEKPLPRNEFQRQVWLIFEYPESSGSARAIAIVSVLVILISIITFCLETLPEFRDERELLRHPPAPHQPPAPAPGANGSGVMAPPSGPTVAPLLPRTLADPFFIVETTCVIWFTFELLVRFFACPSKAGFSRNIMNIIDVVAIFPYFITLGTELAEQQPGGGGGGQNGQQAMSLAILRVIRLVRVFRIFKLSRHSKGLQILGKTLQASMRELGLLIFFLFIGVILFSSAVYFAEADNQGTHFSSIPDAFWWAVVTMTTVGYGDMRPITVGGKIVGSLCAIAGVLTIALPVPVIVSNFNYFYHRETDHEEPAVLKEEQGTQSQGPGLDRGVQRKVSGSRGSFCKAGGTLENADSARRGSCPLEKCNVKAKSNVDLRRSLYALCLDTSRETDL

Row | inhibition at 1 µM (1 μM, HEK 293-hKv 1.5, +60 mV pulse, max current in first 100 ms, read-out: Percent inhibition of Peak IKur, Mean) [%] | inhibition at 1 µM (1 μM, HEK 293-hKv 1.5, last 20 ms of 300 ms depolarizing pulse, read-out: Percent inhibition of End of pulse IKur, Mean) [%] | inhibition at 3.2 µM (3.2 μM, HEK 293-hKv 1.5, +60 mV pulse, max current in first 100 ms, read-out: Percent inhibition of Peak IKur, Mean) [%] | inhibition at 3.2 µM (3.2 μM, HEK 293-hKv 1.5, last 20 ms of 300 ms depolarizing pulse, read-out: Percent inhibition of End of pulse IKur, Mean) [%] | inhibition at 5.6 µM (HEK 293-hKv 1.5, +60 mV pulse, max current in first 100 ms, read-out: Percent inhibition of Peak IKur, Mean) [%] | inhibition at 5.6 µM (HEK 293-hKv 1.5, last 20 ms of 300 ms depolarizing pulse, read-out: Percent inhibition of End of pulse IKur, Mean) [%] | inhibition at 10 µM (10 μM, HEK 293-hKv 1.5, +60 mV pulse, max current in first 100 ms, read-out: Percent inhibition of Peak IKur, Mean) [%] | inhibition at 10 µM (10 μM, HEK 293-hKv 1.5, last 20 ms of 300 ms depolarizing pulse, read-out: Percent inhibition of End of pulse IKur, Mean) [%] | inhibition at 25 µM (25 μM, HEK 293-hKv 1.5, +60 mV pulse, max current in first 100 ms, read-out: Percent inhibition of Peak IKur, Mean) [%] | inhibition at 25 µM (25 μM, HEK 293-hKv 1.5, last 20 ms of 300 ms depolarizing pulse, read-out: Percent inhibition of End of pulse IKur, Mean) [%] | Percent inhibition of Peak IKur, Mean (1 μM, HEK 293-hKv 1.5, +60 mV pulse, max current in first 100 ms) [%] | Percent inhibition of End of pulse IKur, Mean (1 μM, HEK 293-hKv 1.5, last 20 ms of 300 ms depolarizing pulse) [%] | Percent inhibition of Peak IKur, Mean (3.2 μM, HEK 293-hKv 1.5, +60 mV pulse, max current in first 100 ms) [%] | Percent inhibition of End of pulse IKur, Mean (3.2 μM, HEK 293-hKv 1.5, last 20 ms of 300 ms depolarizing pulse) [%] | Percent inhibition of Peak IKur, Mean (10 μM, HEK 293-hKv 1.5, +60 mV pulse, max current in first 100 ms) [%] | Percent inhibition of End of pulse IKur, Mean (10 μM, HEK 293-hKv 1.5, last 20 ms of 300 ms depolarizing pulse) [%] | Percent inhibition of Peak IKur, Mean (25 μM, HEK 293-hKv 1.5, +60 mV pulse, max current in first 100 ms) [%] | Percent inhibition of End of pulse IKur, Mean (25 μM, HEK 293-hKv 1.5, last 20 ms of 300 ms depolarizing pulse) [%] | SMILES
1 | 8.2 | 10.1 | 10.9 | 14.5 | 15.4 | 33.7 | 22.6 | 78 | 58.1 ± 13.6 | 86.5 ± 3.4 | – | – | – | – | – | – | – | – | CC/C=C\C/C=C\C/C=C\C/C=C\C/C=C\C/C=C\CCC(=O)O [DHA, docosahexaenoic acid]
2 | – | – | – | – | – | – | – | – | – | – | 14.6 | 14.9 | 16.1 | 19.9 | 17.5±6.4 | 36.6 | 5.4 | 61.6±7.3 | CC/C=C\C/C=C\C/C=C\C/C=C\C/C=C\CCCC(=O)O [EPA]
